Test systems include A549 NSCLC; HL-60(TB) leukemia; HOP-62 NSCLC; IGROV1 ovarian; KM12 colon; LOX IMVI melanoma; NCI-H23 lung; NCI-H460 lung; RPMI-8226 leukemia; SF-268 CNS; SF-295 CNS; SK-OV-3 ovarian; UACC-62 melanoma; OVCAR-4 ovarian; HS 578T breast.
Holding throughout (experiment): NCI-60 cell line screen, 48 h

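Exposure lasted 48 hours, with cells grown in 96-well plates and compounds tested at five concentrations. GI50 marks 50% less growth. At the TGI there is no net growth.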 Some results are limits rather than exact numbers.

On to `C=CCC(N(C)C(=O)[C@H](Cc1ccccc1)NC(=O)OCc1ccccc1)P(=O)(Oc1ccccc1)Oc1ccccc1` (stereo partly specified), for which the TGI in the assay on A549 NSCLC, in the assay with HL-60(TB) leukemia, with HOP-62 NSCLC, with IGROV1 ovarian, in the assay with KM12 colon and in the assay with LOX IMVI melanoma was > 100 µM each time. In addition, the TGI with NCI-H23 lung, with NCI-H460 lung, with RPMI-8226 leukemia, with SF-268 CNS, with SF-295 CNS and with SK-OV-3 ovarian was > 100 µM each time. Also, the TGI in the assay on UACC-62 melanoma is > 100 µM.
`COC(=O)C(C#CCCCCC#CC(NC(=O)OCc1ccccc1)(C(=O)OC)C(F)(F)F)(NC(=O)OCc1ccccc1)C(F)(F)F` (stereo unspecified): the TGI in the assay with A549 NSCLC, in the assay on HL-60(TB) leukemia, in the assay with HOP-62 NSCLC, in the assay on IGROV1 ovarian, with KM12 colon and with LOX IMVI melanoma was > 100 µM each time. Further, the TGI in the assay with NCI-H23 lung, in the assay with NCI-H460 lung, with OVCAR-4 ovarian, in the assay with RPMI-8226 leukemia, in the assay with SF-268 CNS and in the assay with SF-295 CNS was > 100 µM in each case. The TGI with SK-OV-3 ovarian and with UACC-62 melanoma was > 100 µM throughout.
Turning to `CC1CN(c2ccc(Cl)cc2)CC(C)OC(=O)O1` (stereo unspecified), the TGI with A549 NSCLC, with HL-60(TB) leukemia, in the assay with HOP-62 NSCLC, with IGROV1 ovarian, with KM12 colon and with LOX IMVI melanoma was > 100 µM throughout. Besides, the TGI in the assay on NCI-H23 lung, in the assay with NCI-H460 lung, in the assay with OVCAR-4 ovarian, in the assay on RPMI-8226 leukemia, in the assay on SF-268 CNS and with SF-295 CNS was > 100 µM in each case. For the same compound, the TGI in the assay on SK-OV-3 ovarian and with UACC-62 melanoma was > 100 µM in each case.
As to `COc1cc2c(cc1OCCCCN1C(=O)c3cccc4cccc(c34)C1=O)N=C[C@@H]1CCCN1C2=O`, the TGI in the assay with A549 NSCLC was > 53.4 µM; with HOP-62 NSCLC, 33.6 µM; in the assay with IGROV1 ovarian, 6.01 µM; in the assay with KM12 colon, 13.2 µM; with LOX IMVI melanoma it was > 100 µM; in the assay with NCI-H23 lung it was 11.5 µM. Also, the TGI in the assay with NCI-H460 lung is 14.4 µM; in the assay with OVCAR-4 ovarian it was 18.3 µM; in the assay on RPMI-8226 leukemia, 27.4 µM; with SF-268 CNS, > 100 µM; in the assay on SF-295 CNS it was 45.8 µM; in the assay with SK-OV-3 ovarian, > 74 µM. Further, the TGI in the assay with UACC-62 melanoma is 39.9 µM.
In the case of `C=CCNC(=O)N(CCCC(NC(C)=O)C(=O)NCc1ccccc1)Cc1ccccc1` (stereo unspecified), the TGI in the assay on A549 NSCLC, with HL-60(TB) leukemia, in the assay on HOP-62 NSCLC, in the assay on IGROV1 ovarian, in the assay on KM12 colon and with LOX IMVI melanoma was > 100 µM throughout. Further, the TGI in the assay with NCI-H23 lung, with NCI-H460 lung, in the assay with OVCAR-4 ovarian, with RPMI-8226 leukemia, with SF-268 CNS and with SF-295 CNS was > 100 µM each time. Besides, the TGI in the assay with SK-OV-3 ovarian and with UACC-62 melanoma was > 100 µM in each case.
As to `COc1cccc([C@H]2C/C(=N\NC(=O)C(=O)N[C@@H](C)c3ccccc3)c3ccccc3N2)c1`, the GI50 with A549 NSCLC was 0.0366 µM; in the assay on HOP-62 NSCLC it was 0.0835 µM; with OVCAR-4 ovarian, 45.3 µM; with SF-268 CNS, 0.0912 µM. Further, the TGI is > 100 µM in the assay with A549 NSCLC; 0.088 µM with HS 578T breast; 0.0762 µM in the assay on KM12 colon; > 100 µM with LOX IMVI melanoma; > 100 µM in the assay on OVCAR-4 ovarian; 0.0503 µM in the assay with RPMI-8226 leukemia. For the same compound, the TGI in the assay with SF-268 CNS was > 100 µM; in the assay with SF-295 CNS, > 100 µM; in the assay on SK-OV-3 ovarian, > 100 µM; in the assay on UACC-62 melanoma, 0.0962 µM.
As to `COC(=O)/C(=N\NC(=O)C[N+](C)(C)C)C(C(=O)OC)C(=O)C(=O)Nc1ccccc1C(N)=O` (stereo unspecified), the TGI in the assay with A549 NSCLC, with HL-60(TB) leukemia, in the assay with HOP-62 NSCLC, in the assay with IGROV1 ovarian, with KM12 colon and in the assay on LOX IMVI melanoma was > 100 µM throughout. The TGI in the assay on NCI-H23 lung, in the assay with NCI-H460 lung, with OVCAR-4 ovarian, in the assay on RPMI-8226 leukemia, in the assay with SF-268 CNS and in the assay with SF-295 CNS was > 100 µM in each case. The TGI in the assay with SK-OV-3 ovarian and with UACC-62 melanoma was > 100 µM each time.
As to `Clc1ccc(N=Nc2nc3ccccc3nc2N=Nc2ccc(Cl)cc2Cl)c(Cl)c1`, the TGI with A549 NSCLC was > 100 µM; with HL-60(TB) leukemia, 90 µM; with HOP-62 NSCLC, > 100 µM; in the assay on IGROV1 ovarian, > 100 µM; in the assay on KM12 colon, > 100 µM; in the assay with LOX IMVI melanoma, > 100 µM. Also, the TGI in the assay on NCI-H23 lung, with NCI-H460 lung, with OVCAR-4 ovarian, in the assay on RPMI-8226 leukemia, with SF-268 CNS and with SF-295 CNS was > 100 µM each time.
Turning to `COc1ccc(N=Cc2ccc(N(CCC#N)S(=O)(=O)c3ccccc3)cc2)cc1`, the TGI with A549 NSCLC, in the assay on HL-60(TB) leukemia, in the assay with HOP-62 NSCLC, in the assay with IGROV1 ovarian, with KM12 colon and in the assay on LOX IMVI melanoma was > 100 µM each time. The TGI in the assay on NCI-H23 lung, with NCI-H460 lung, in the assay on OVCAR-4 ovarian, in the assay with RPMI-8226 leukemia, with SF-268 CNS and with SF-295 CNS was > 100 µM throughout. Also, the TGI in the assay on SK-OV-3 ovarian and in the assay on UACC-62 melanoma was > 100 µM in each case.
Take `O=C1c2ccccc2OP(=O)(OCC(F)(F)F)OC1(C(F)(F)F)C(F)(F)F` (stereo unspecified): the TGI in the assay on A549 NSCLC, in the assay on HL-60(TB) leukemia, in the assay with HOP-62 NSCLC, in the assay on IGROV1 ovarian, in the assay with KM12 colon and in the assay with LOX IMVI melanoma was > 100 µM throughout. In addition, the TGI in the assay with NCI-H23 lung, with NCI-H460 lung, in the assay with OVCAR-4 ovarian, in the assay with RPMI-8226 leukemia, in the assay with SF-268 CNS and in the assay with SF-295 CNS was > 100 µM in each case. Moreover, the TGI in the assay with SK-OV-3 ovarian and with UACC-62 melanoma was > 100 µM in each case.

(Values after PubChem BioAssay (NCI).)
